Laboratory results from paper PMC4658577 (Frontiers in Plant Science, 2015).

Key:
Type in all cases: cell-based
[1] = biological target: T1, cystic fibrosis transmembrane conductance regulator (CFTR) (Homo sapiens, UniProt P13569); assay: gradient concentrations inhibiting lignan-activated CFTR iodide influx in FRT cells
T1 construct: human wild-type CFTR cDNA

ANO1/CaCC (TMEM16A) [2] = biological target: T2, ANO1/CaCC (TMEM16A) (Homo sapiens, UniProt Q5XXA6); assay: Eact-induced short-circuit current in ANO1-expressing FRT cells
T2 construct: ANO1 cDNA
T2 sequence (Q5XXA6 1-986): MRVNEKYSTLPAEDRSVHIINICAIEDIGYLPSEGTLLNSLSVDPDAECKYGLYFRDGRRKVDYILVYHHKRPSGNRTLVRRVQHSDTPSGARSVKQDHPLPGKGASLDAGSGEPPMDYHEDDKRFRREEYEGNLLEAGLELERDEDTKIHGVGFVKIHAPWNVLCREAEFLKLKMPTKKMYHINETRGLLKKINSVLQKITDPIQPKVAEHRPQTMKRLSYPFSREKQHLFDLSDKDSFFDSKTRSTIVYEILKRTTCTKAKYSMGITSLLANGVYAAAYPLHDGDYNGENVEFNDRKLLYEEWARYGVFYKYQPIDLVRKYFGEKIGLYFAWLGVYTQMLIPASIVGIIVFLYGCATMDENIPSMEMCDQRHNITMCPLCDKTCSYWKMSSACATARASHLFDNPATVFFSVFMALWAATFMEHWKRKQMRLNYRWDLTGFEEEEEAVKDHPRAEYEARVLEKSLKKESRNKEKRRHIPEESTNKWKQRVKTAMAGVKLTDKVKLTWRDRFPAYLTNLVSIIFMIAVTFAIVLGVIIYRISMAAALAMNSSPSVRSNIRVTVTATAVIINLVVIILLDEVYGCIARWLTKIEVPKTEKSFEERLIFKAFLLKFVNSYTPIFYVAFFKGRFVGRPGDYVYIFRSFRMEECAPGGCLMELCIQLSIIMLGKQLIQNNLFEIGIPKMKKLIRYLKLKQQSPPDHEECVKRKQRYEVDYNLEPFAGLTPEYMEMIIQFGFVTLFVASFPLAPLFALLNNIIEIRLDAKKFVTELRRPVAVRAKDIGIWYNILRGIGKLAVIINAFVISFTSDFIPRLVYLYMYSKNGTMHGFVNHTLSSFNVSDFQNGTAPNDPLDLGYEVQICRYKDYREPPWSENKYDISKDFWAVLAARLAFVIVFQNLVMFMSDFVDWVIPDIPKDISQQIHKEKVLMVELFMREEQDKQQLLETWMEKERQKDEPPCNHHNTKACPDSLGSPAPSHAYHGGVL

ANO1/CaCC (TMEM16A) [3] = biological target: T2, ANO1/CaCC (TMEM16A); assay: Eact-induced short-circuit current in ANO1-expressing FRT cells, […]

T1 sequence (P13569 whole entry): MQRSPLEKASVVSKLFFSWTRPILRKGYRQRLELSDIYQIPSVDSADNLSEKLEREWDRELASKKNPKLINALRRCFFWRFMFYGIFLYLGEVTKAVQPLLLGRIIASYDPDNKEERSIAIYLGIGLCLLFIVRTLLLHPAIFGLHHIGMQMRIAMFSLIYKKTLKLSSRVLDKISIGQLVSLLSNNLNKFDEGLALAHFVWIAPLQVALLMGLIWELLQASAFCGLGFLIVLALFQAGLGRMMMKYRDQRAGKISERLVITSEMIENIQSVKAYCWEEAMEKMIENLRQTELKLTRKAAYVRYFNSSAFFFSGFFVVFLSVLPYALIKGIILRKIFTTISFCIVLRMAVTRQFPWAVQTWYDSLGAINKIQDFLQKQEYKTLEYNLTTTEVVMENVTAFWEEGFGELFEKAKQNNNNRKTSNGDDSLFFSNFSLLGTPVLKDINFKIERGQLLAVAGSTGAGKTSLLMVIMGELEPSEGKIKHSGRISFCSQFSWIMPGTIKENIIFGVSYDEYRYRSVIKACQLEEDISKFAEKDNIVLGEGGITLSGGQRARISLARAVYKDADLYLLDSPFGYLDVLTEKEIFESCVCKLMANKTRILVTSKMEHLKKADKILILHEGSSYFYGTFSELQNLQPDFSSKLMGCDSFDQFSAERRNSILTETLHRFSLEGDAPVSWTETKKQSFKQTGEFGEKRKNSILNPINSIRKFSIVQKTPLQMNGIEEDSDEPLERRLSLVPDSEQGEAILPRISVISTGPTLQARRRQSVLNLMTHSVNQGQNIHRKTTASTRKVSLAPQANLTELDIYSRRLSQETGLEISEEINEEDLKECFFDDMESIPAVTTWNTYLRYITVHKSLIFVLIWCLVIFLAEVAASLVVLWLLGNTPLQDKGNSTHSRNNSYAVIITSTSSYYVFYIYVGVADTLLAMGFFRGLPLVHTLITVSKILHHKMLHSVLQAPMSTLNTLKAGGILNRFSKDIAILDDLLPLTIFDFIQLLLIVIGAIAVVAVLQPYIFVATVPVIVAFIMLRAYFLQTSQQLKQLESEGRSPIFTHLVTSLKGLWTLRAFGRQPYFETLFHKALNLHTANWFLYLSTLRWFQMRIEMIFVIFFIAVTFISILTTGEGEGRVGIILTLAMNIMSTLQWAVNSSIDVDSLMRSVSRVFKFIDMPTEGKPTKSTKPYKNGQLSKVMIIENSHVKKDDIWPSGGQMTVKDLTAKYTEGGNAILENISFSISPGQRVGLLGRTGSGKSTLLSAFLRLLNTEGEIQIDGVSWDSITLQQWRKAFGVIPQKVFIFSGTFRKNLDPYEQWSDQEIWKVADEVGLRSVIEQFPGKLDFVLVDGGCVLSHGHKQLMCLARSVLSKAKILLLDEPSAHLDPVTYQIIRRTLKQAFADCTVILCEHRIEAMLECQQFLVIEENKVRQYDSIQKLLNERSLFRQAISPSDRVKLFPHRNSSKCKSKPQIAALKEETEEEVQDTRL

## O=C(O)c1ccc(/C=C2\SC(=S)N(c3cccc(C(F)(F)F)c3)C2=O)cc1 [compound 172, CFTRinh-172]
[1]
  gradient concentrations inhibiting lignan-activated CFTR iodide influx in FRT ce: activation effect of these compounds could be inhibited by gradient concentrations of the known CFTR inhibitor CFTRinh-172

## COc1ccc([C@H]2OC[C@H]3[C@@H]2CO[C@@H]3c2ccc(OC)c(OC)c2)cc1OC [eudesmin]
ANO1/CaCC (TMEM16A) [2]
  IC50: 200 µM

## CCc1c(C)nc(SCC(=O)Nc2nc(-c3ccc(OC)cc3)cs2)[nH]c1=O [16A, T16Ainh-A01]
ANO1/CaCC (TMEM16A) [3]
  Eact-induced short-circuit current in ANO1-expressing FRT cells, 30 μM: Eact-induced ANO1-mediated short-circuit current was completely abolished by the specific inhibitor of ANO1 T16Ainh-A01
